Experimental data taken from ChEMBL document CHEMBL1201862, “PubChem BioAssay data set” (2004).
The source made the active and inactive calls.

Tests used:
[1] = A Cell Based Secondary Assay To Explore Cytotoxicity of Compounds that Sensitize Mycobacterium Tuberculosis to Beta-Lactam Antibiotics.; type: functional
[2] = tested on: CHO; assay: CHO cell viability loss, potency – luminescence, cytotoxicity control for TLR9-MyD88 binding inhibitor project, dose response (AID 588339); type: functional, cell-based, hamster; conditions: Cricetulus griseus;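 further: CHO cells stably coexpressing TLR9 and MyD88 fusions from primary screen; compound exposure lasted 48 hours before viability readout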
[3] = molecular target: T1, Endoribonuclease toxin MazF (Escherichia coli K-12, UniProt P0AE70); assay: activation of MazEF endoribonuclease cleavage – biochemical, fluorescence, single-stranded RNA substrate, uHTS hits, dose response (AID 588481); type: functional
T1 sequence (P0AE70 whole entry): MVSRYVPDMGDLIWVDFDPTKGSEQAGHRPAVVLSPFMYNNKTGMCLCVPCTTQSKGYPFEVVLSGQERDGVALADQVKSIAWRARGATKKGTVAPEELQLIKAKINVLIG

[4] = molecular target: Beta Lactamase (Pseudomonas aeruginosa, UniProt Q932Y6); assay: BLA reporter interference, concentration series – BLA reporter cells, FRET fluorescence, artefact control for TLR9-MyD88 binding inhibitor project, dose response (AID 588341); type: cell-based;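 further: cell based assay in CHO-K1 cells stably expressing beta-lactamase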
[5] = molecular target: T1, Endoribonuclease toxin MazF; assay: substrate-only fluorescence increase artefacts – biochemical, single-stranded RNase substrate, counter-screen for MazEF activator project, dose response (AID 588502); type: functional
[6] = molecular target: Glycogen synthase kinase-3 alpha (Homo sapiens, UniProt P49840); assay: Inhibition of Human GSK-3 alpha Activity Measured in Biochemical System Using Microfluidics - 2063-06_Inhibitor_Dose_DryPowder_Activity. [Related pubchem assays (depositor defined):AID2709]
[7] = molecular target: Glycogen synthase kinase-3 beta (Homo sapiens, UniProt P49841); assay: Inhibition of Human GSK-3 beta Activity Measured in Biochemical System Using Microfluidics - 2063-05_Inhibitor_Dose_DryPowder_Activity. [Related pubchem assays (depositor defined):AID2709]
[8] = tested on: Vero; assay: viability of Vero cells under compound – cytotoxicity control for flavivirus capping enzyme inhibitors (AID 588742); type: functional; conditions: Chlorocebus sabaeus
[9] = molecular target: Genome polyprotein (dengue virus type 2, UniProt P29990); assay: flavivirus cap methylation enzyme inhibition – biochemical, confirmation dose response, primary screen (AID 588689); type: functional
[10] = molecular target: DNA topoisomerase (Yersinia pestis, UniProt A0A2S9PM60); assay: Yersinia topoisomerase I cleavage product accumulation – biochemical, cherry-pick, dose response (AID 588525)
[11] = molecular target: Beta-2 adrenergic receptor (Homo sapiens, UniProt P07550); assay: ADRB2 activation measured by internalization – cell-based, FAP fluorogen, flow cytometry, cherry pick 1, dose response (AID 588763); type: functional
[12] = molecular target: Dual specificity protein kinase CLK1 (Homo sapiens, UniProt P49759); assay: inhibition of human CLK1 activity – biochemical, cherry-picked samples, selectivity assay for Dyrk1A inhibitor project, dose response (AID 588811)
Chain of Dual specificity protein kinase CLK1 (P49759 whole entry): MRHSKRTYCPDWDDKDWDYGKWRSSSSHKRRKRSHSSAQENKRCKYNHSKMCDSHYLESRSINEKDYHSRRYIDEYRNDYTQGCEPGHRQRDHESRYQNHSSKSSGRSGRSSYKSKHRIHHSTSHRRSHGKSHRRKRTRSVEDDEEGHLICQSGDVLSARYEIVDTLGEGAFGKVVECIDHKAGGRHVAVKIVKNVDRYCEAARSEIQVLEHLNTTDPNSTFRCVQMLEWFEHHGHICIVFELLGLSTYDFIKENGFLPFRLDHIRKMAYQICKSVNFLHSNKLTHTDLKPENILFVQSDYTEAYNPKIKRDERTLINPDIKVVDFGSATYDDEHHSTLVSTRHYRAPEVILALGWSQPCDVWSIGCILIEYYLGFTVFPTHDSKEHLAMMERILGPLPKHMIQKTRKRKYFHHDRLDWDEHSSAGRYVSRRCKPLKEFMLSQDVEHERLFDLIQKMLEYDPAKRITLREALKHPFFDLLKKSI

Chain of Beta-2 adrenergic receptor (P07550 whole entry): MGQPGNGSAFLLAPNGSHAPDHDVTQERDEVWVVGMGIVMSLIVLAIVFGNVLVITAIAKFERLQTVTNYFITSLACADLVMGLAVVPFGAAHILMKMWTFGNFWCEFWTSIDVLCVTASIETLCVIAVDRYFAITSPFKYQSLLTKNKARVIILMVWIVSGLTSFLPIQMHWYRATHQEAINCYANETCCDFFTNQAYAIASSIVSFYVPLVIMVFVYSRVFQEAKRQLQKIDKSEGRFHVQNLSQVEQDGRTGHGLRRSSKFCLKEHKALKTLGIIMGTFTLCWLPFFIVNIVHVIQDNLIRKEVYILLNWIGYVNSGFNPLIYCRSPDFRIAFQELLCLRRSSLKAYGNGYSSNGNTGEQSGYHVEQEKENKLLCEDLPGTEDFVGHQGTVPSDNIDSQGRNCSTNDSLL
Chain of Glycogen synthase kinase-3 alpha (P49840 whole entry): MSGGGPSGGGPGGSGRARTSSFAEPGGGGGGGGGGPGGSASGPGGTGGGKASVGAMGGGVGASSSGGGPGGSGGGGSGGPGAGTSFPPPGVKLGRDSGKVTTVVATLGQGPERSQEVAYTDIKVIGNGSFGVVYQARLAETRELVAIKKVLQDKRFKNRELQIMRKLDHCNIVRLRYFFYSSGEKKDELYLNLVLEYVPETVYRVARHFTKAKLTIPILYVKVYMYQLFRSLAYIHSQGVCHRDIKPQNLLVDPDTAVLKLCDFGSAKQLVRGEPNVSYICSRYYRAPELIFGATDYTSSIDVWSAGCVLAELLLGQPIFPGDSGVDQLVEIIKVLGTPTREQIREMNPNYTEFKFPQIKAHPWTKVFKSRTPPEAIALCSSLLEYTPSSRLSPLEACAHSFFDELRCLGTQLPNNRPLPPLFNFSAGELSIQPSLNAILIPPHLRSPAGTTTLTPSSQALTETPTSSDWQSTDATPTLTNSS
Chain of Glycogen synthase kinase-3 beta (P49841 whole entry): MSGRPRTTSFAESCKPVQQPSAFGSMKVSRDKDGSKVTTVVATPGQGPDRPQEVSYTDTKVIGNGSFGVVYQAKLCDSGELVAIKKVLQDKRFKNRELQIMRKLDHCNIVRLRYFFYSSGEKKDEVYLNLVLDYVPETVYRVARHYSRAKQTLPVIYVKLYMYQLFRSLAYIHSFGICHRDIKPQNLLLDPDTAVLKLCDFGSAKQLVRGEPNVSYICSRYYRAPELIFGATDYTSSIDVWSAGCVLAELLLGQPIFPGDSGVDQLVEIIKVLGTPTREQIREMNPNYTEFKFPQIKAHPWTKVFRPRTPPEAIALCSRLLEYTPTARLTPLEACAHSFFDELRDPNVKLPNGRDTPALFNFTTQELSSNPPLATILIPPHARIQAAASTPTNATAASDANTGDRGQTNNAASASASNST
Chain of DNA topoisomerase (A0A2S9PM60 whole entry): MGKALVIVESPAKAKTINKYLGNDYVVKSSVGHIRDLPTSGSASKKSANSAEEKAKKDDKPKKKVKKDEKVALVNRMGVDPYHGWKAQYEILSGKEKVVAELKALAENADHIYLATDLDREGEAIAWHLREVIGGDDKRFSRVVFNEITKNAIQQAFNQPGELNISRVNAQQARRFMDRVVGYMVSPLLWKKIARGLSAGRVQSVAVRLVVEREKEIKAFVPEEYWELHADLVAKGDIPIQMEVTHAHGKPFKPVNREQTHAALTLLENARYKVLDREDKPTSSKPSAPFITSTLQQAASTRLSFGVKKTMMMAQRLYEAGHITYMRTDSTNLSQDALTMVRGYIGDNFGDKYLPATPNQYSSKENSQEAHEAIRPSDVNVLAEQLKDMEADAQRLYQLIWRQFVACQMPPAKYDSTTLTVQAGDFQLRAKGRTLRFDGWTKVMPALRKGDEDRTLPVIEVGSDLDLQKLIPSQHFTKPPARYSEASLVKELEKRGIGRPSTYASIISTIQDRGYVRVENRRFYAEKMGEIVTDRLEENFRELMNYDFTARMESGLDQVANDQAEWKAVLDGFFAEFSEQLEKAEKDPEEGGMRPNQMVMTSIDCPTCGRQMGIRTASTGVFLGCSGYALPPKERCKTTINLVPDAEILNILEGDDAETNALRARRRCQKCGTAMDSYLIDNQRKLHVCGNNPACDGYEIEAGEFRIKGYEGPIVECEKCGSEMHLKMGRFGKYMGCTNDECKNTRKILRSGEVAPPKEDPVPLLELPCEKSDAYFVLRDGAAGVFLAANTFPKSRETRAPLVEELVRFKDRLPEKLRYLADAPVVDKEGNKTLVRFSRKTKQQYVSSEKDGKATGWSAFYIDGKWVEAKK
Chain of Genome polyprotein (P29990 2492-3391 limits assumed): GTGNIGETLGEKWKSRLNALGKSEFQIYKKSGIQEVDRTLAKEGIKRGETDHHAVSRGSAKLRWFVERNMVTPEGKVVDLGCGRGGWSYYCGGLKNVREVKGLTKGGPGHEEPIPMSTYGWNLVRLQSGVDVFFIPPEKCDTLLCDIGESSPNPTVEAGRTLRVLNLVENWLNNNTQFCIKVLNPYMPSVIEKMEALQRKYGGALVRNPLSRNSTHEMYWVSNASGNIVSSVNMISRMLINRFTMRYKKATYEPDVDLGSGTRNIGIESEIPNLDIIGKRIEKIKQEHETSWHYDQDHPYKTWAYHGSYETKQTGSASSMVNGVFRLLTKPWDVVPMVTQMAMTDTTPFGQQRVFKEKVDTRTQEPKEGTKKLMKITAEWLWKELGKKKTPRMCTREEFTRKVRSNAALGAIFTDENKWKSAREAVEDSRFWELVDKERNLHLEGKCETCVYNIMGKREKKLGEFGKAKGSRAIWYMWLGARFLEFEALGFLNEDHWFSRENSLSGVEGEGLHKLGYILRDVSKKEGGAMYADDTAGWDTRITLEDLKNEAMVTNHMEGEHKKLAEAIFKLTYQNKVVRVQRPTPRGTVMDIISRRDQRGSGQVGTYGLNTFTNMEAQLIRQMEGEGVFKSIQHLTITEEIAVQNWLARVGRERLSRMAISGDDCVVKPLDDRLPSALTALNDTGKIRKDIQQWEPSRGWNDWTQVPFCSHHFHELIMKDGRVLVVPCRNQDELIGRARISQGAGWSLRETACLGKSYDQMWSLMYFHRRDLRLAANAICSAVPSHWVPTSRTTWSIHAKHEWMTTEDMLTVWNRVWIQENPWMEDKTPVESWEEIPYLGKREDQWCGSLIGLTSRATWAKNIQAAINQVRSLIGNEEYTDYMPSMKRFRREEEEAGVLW
Chain of Beta Lactamase (Q932Y6 whole entry): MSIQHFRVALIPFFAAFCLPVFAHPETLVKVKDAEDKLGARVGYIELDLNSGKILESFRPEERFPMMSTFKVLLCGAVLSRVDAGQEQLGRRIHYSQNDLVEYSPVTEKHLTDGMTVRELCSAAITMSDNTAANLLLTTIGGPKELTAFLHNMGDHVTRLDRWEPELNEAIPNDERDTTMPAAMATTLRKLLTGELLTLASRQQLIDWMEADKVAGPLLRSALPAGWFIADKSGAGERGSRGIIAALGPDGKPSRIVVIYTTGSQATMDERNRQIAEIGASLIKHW

With `Nc1c(C(=O)c2cccs2)sc2nsc(SCCN3CCCCC3)c12` as the molecule, how does the CC50 [1] read?
The CC50 was > 40 µM (active).

And the IC50 [2]?
Its IC50 is > 49.8 µM (inactive).

What about the EC50 [3] of the same molecule?
Its EC50 is 12 µM (active).

And the IC50 [4]?
Its IC50 is 9.89 µM (active).

What about the EC50 [5] of the same molecule?
Its EC50 is > 99 µM (inactive).

Which AC50 [6] does the source give for `COc1ccc2nc(NC(=O)CCNC(=O)c3ccccc3Cl)sc2c1` here?
Its AC50 is 8.01 µM (active).

And the AC50 [7]?
Its AC50 is 1.53 µM (active).

Which results are given for `CCc1ccc(N2C(=O)c3sc4nnc(-c5ccccc5)c(=O)n4c3C2=O)cc1`?
CC50 [8]: > 40 µM (active); IC50 [9]: 48.5 µM (active)

Which AC50 [10] does the source give for `CC(C)CN(C(=O)COC(=O)c1cc2ccccc2cc1O)c1c(N)n(Cc2ccccc2)c(=O)[nH]c1=O` here?
The AC50 was 6.2 µM (active).

With `O=C(CCCCCn1c(=O)[nH]c2ccsc2c1=O)NCc1ccc(F)cc1` as the molecule, how does the EC50 [11] read?
Its EC50 is 0.0776 µM (active).

With `c1cncc(CNc2ccnc(-c3ccc4cn[nH]c4c3)n2)c1` as the molecule, how does the AC50 [12] read?
Its AC50 is 2.01 µM (active).
